Holding throughout (assay): inhibition of tumour cell growth, NCI panel, 48 h
Test [1] deals with HL-60(TB) leukemia.
For test [2], the system named is COLO 205 colon.
Test [3] deals with IGROV1 ovarian.
For test [4], the system named is OVCAR-8 ovarian.
Test [5] relates to SW-620 colon.
The subject of test [6] is SNB-75 CNS.
Test [7] has as its system SF-539 CNS.
The subject of test [8] is EKVX NSCLC.
Test [9] concerns CCRF-CEM leukemia.
For test [10], the system named is CAKI-1 renal.
Test [11] concerns A549 NSCLC.
Test [12] concerns NCI-H460 lung.
Test [13] concerns SK-OV-3 ovarian.
Test [14] concerns TK-10 renal.
Test [15] has as its system LOX IMVI melanoma.
For test [16], the system named is HCT-15 colon.
The test system of test [17] is HCC-2998 colon.
Test [18] has as its system MOLT-4 leukemia.
The subject of test [19] is ACHN renal.
For test [20], the system named is HCT-116 colon.

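These data come from cells grown in 96-well plates and exposed to compound for 48 hours at five concentrations. TGI marks complete inhibition of growth.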

With `CCOC(=O)C1=NN(c2ccc(Cl)cc2)C2=CC(C)=NN(C)C(=S)N21`, the TGI in test [1] is greater than 100 µM; in [2], greater than 100 µM; in test [3], greater than 100 µM; in [4], greater than 100 µM; in [5], greater than 100 µM; in [6], 94.7 µM. The TGI was 56.5 µM in test [7]; 81.9 µM in test [8]; greater than 100 µM in [9]; 50.4 µM in test [10]; greater than 100 µM in test [11]; greater than 100 µM in [12]. For the same molecule, the TGI in test [13] is 94.4 µM; in [14], 62 µM; in [15] it was greater than 100 µM; in [16], greater than 100 µM; in [17] it was greater than 100 µM; in test [18], greater than 100 µM. The TGI in [19] and in test [20] was greater than 100 µM each time.
As to `COc1ccc(/C=N/n2cnc3c(c2=O)S/C(=C2/SC(=S)N(c4ccc(C)cc4)C2=O)N3c2ccccc2)cc1`, the TGI in [1], in test [2], in test [3], in test [4], in test [5] and in test [6] was greater than 100 µM throughout. In addition, the TGI in [7] is greater than 100 µM; in test [8], greater than 100 µM; in test [9] it was greater than 100 µM; in test [10], greater than 10 µM; in test [11] it was greater than 100 µM; in test [12] it was greater than 100 µM. Besides, the TGI is greater than 100 µM in test [13]; greater than 100 µM in [14]; greater than 100 µM in test [15]; greater than 100 µM in test [16]; greater than 100 µM in [17]; greater than 10 µM in [18]. The TGI in test [19] and in test [20] was greater than 100 µM in each case.
`COc1ccc(/C(Cl)=C(\C=O)c2ccccc2)cc1OC`: the TGI was 76.9 µM in test [1]; 22.4 µM in test [2]; greater than 100 µM in test [3]; greater than 100 µM in test [4]; greater than 100 µM in test [5]; 52.2 µM in [6]. The TGI in test [7], in [8], in test [9], in test [10], in [11] and in test [12] was greater than 100 µM in each case. Besides, the TGI in test [13], in test [14], in test [15], in [16], in test [17] and in test [18] was greater than 100 µM each time. Also, the TGI in [19] and in test [20] was greater than 100 µM each time.

The values are drawn from PubChem BioAssay (NCI).
